Results reported in patent publication US8889620B2, “Pharmaceutical compositions comprising peptide antagonists of vascular endothelial growth factor” (Children's Medical Center Corporation, priority 1997, dated 2014).
Where no end group is shown, it is not given here.

Tested on: VEGF165-induced proliferation of HUVEC
Assay: Inhibition of VEGF165-stimulated HUVEC proliferation
Assay type: cell-based, human
Protocol: FIG. 6. GST-Ex 7+8 fusion protein inhibits VEGF165-stimulated HUVEC proliferation. HUVEC were cultured in 96-well dishes (5,000 cell/well) as in FIG. 2. Increasing concentrations of VEGF165 (open circles), together with 15 ug/ml GST-Ex 7+8 (closed circles) or 25 ug/ml GST (squares), were added to the medium, and the cells were incubated for 4 more days. DNA synthesis was measured in HUVEC as described in FIG. 2. The results represent the average counts of three wells, and the standard deviations were determined.
FIG. 7. GST-Ex 7+8 fusion protein inhibits VEGF165 and VEGF121-stimulated HUVEC proliferation. Increasing concentration of VEGF165 (circles) or VEGF121 (square) with 15 ug/ml GST-Ex 7+8 (closed symbols) or without GST-Ex 7+8 (open symbols) were added to HUVEC, and [*H]thymidine incorporation into the DNA was measured as in FIG. 2. The results represent the average counts of three wells and the standard deviations were determined.
HUVEC were seeded in gelatin-coated 96-well dishes at 4,000 cells/200 Ul/well in M-199 containing 5% FCS and GPS. After 24 H, VEGF isoforms and VEGF exon 7-GST fusion proteins were added to the wells at the same time. The cells were incubated for 72 h, and [3H]thymidine (1 pC/ml) was added for 10-12 h. The medium was aspirated, and the cells were trypsinized and harvested by an automatic cell harvester (TOMTEC) and loaded onto Filtermats (Wallac). The Filtermats were scanned and cpm were determined by a MicroBeta counter (Wallac). The results represent the average of samples assayed in triplicate, and the standard derivations were determined. All experiments were repeated at least three times and similar results were obtained.

GST-Ex 7+8: GST fusion protein containing the peptide encoded by VEGF165 exons 7 and 8 (PCGPCSERRKHLFVQDPQTCKCSCKNTDSRCKARQLELNERTCRCDKPRR; cysteine pairing not given here; also: GST fusion protein, side of fusion not given here)
reduction of VEGF165-induced HUVEC proliferation (15 ug/ml fusion protein added with VEGF165, FIG. 6): about 60%
inhibition of the level of VEGF165-induced mitogenicity (FIG. 7, 15 ug/ml): about 2 fold
